Test results from ChEMBL document CHEMBL1146972, “Specific inhibitors of Plasmodium falciparum thioredoxin reductase as potential antimalarial agents” (Bioorg Med Chem Lett, 2006).

Legend:
Thioredoxin reductase [1] = target: T1, Thioredoxin reductase (Plasmodium falciparum 3D7, UniProt P61076); test: Inhibition of Plasmodium falciparum TrxR
T1 sequence (P61076 whole entry): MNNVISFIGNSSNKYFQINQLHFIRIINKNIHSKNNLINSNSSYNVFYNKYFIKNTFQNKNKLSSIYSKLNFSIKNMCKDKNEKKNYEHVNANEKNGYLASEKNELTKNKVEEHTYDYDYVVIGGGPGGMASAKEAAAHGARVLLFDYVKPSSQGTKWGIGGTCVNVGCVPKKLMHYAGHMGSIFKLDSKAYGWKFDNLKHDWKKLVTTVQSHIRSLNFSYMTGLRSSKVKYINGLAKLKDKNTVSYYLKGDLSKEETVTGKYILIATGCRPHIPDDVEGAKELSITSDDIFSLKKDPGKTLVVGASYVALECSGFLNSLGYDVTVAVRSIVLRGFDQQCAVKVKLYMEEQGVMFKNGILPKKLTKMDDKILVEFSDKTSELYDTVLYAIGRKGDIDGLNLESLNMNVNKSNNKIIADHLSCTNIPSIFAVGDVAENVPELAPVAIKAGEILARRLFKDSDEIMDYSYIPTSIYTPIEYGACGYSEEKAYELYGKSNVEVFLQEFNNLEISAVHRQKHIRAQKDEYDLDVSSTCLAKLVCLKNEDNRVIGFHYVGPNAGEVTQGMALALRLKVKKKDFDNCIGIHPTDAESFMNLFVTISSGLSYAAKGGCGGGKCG

Thioredoxin reductase [2] = target: Thioredoxin reductase (Homo sapiens, UniProt Q16881+Q9NNW7+Q86VQ6); test: Inhibition of human TrxR; assay type: protein assay
[3] = target: T2, Thioredoxin reductase (Plasmodium falciparum 3D7) (UniProt P61076); test: Inhibition of Plasmodium falciparum TrxR at 100 uM
T2 sequence (whole entry): T1 sequence (P61076 whole entry)

[4] = target: T3, Glutathione reductase, mitochondrial (Homo sapiens) (UniProt P00390); test: Inhibition of human GR at 2 uM
T3 sequence (whole entry): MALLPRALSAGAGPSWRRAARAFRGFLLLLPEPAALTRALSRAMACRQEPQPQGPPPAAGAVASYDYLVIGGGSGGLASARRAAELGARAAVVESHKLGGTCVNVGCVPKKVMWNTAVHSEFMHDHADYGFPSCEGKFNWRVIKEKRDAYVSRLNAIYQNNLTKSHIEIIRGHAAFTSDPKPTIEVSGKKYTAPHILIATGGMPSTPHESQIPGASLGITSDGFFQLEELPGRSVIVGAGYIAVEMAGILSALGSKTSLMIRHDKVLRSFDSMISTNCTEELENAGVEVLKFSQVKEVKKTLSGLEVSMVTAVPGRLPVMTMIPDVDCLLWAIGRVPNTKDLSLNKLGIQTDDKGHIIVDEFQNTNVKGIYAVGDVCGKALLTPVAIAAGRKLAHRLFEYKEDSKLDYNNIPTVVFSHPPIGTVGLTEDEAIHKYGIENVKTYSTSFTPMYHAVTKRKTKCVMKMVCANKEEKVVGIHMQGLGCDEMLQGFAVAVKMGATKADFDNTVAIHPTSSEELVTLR

Thioredoxin reductase [5] = target: T1, Thioredoxin reductase; test: Binding affinity to Plasmodium falciparum TrxR in presence of thioredoxin
Thioredoxin reductase [6] = target: T1, Thioredoxin reductase; test: Binding affinity to Plasmodium falciparum TrxR in presence of NADPH
Plasmodium falciparum [7] = test: Growth inhibition against Plasmodium falciparum K1; assay type: functional, organism-based
[8] = target: Glutathione reductase (Plasmodium falciparum 3D7) (UniProt O15770); test: Inhibition of Plasmodium falciparum GR at 2 uM
Plasmodium falciparum [9] = test: Inhibition of Plasmodium falciparum K1 as [3H]hypoxanthine uptake; assay type: functional, organism-based
[10] = target: T2, Thioredoxin reductase (Plasmodium falciparum 3D7); conditions: 2 uM
[11] = target: T2, Thioredoxin reductase (Plasmodium falciparum 3D7); conditions: 100 uM
[12] = target: T2, Thioredoxin reductase (Plasmodium falciparum 3D7); conditions: 2 uM; remark: listed apart in the source

Chain of Glutathione reductase (Plasmodium falciparum 3D7) (O15770 whole entry): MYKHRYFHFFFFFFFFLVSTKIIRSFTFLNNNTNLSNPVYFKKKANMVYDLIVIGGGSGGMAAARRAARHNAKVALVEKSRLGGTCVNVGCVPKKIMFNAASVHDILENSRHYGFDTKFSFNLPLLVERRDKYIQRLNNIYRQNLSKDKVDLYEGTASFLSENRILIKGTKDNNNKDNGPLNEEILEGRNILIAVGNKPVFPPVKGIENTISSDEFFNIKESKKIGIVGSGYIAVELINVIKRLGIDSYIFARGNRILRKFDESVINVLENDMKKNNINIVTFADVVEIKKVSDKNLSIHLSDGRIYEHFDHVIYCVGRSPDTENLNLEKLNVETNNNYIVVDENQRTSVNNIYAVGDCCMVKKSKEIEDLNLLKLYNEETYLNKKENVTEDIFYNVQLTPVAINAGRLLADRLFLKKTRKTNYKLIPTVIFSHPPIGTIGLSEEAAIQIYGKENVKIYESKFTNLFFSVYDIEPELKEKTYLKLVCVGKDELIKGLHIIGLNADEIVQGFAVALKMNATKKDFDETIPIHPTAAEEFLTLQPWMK

SMILES | IC50 (Thioredoxin reductase [1]) [µM] | IC50 (Thioredoxin reductase [2]) [µM] | also measured
O=[N+]([O-])c1ccc2nsnc2c1 | 10 | 90 | 
O=[N+]([O-])c1ccc2c(c1)OCO2 |  | > 200 | inhibition [3]: < 10%
O=[N+]([O-])c1cc(C(F)(F)F)cc([N+](=O)[O-])c1Cl [CHLORALIN] | 8 | 100 | 
O=[N+]([O-])c1ccc2nccnc2c1 | 40 | > 200 | 
O=[N+]([O-])c1cccc2nsnc12 | 2 | 50 | inhibition [4]: 81%; Ki (Thioredoxin reductase [5]): 0.65 µM; Ki (Thioredoxin reductase [6]): 1 µM; IC50 (Plasmodium falciparum [7]): 11 µM; inhibition [8]: 69%; IC50 (Plasmodium falciparum [9]): 2.9 µM
O=[N+]([O-])c1cc2nccnc2cc1[N+](=O)[O-] | 2 | 140 | inhibition [10]: 15%; inhibition [11]: 15%; inhibition [4]: 27%; IC50 (Plasmodium falciparum [7]): 15 µM; inhibition [8]: 39%; inhibition [12]: 70%
O=[N+]([O-])c1cc(C(F)(F)F)ccc1Sc1ccc(C(F)(F)F)cc1[N+](=O)[O-] | 20 | > 150 | 
O=[N+]([O-])c1cc([N+](=O)[O-])cc(C(F)(F)F)c1 | 30 | > 200 | 
O=[N+]([O-])c1ccc2c(c1[N+](=O)[O-])OCO2 | 10 | 80 | 
